# Tests used:
# GST-Bcl-2 = GST-Bcl-2 (Homo sapiens, UniProt P10415); assay: TR-FRET binding assay, GST-Bcl-2 with F-Bak peptide probe; details: for Ki: TR-FRET Binding Affinity
# Method in brief: (§1)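 Ki was derived with Wang's equation for competitive binding of two ligands. The read-out was time-resolved fluorescence after a 3 h room-temperature incubation, using a Tb-labelled antibody donor and the F-Bak peptide acceptor (excitation 340/35 nm). Test compounds entered as DMSO serial dilutions starting at 50 μM, which was the 2× concentration.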
# GST-Bcl-XL = GST-Bcl-XL (Homo sapiens, UniProt Q07817); assay: TR-FRET binding assay, GST-Bcl-XL with F-Bak peptide probe; details: TR-FRET Binding Affinity
# Sequence of GST-Bcl-XL (Q07817 whole entry): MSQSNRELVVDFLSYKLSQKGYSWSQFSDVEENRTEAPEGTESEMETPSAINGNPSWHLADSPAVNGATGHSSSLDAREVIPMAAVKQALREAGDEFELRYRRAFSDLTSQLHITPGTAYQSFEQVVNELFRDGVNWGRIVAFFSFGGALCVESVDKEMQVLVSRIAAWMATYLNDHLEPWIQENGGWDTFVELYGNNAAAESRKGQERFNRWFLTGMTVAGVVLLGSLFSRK
# Method in brief: as §1
# [1] = TR-FRET, Bcl-XL Ki divided by Bcl-2 Ki
# [2] = GST-Bcl-XL, F-Bak peptide probe
# Sequence of GST-Bcl-2 (P10415 whole entry): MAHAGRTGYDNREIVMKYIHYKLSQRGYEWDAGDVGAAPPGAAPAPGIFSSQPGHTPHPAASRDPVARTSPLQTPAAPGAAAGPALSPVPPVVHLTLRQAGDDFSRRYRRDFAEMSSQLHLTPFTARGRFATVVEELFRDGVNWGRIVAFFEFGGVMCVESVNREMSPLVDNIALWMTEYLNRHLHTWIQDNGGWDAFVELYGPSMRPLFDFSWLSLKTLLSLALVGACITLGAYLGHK
SMILES,Ki (GST-Bcl-2) [nM],Binding selectivity ratio (Bcl-XL Ki/Bcl-2 Ki) (GST-Bcl-2; [1]),Ki (GST-Bcl-XL) [nM],"Ki (GST-Bcl-2; GST-Bcl-2, F-Bak peptide probe) [nM]",Ki (GST-Bcl-XL; [2]) [nM],"Binding selectivity ratio (Bcl-XL Ki/Bcl-2 Ki) (GST-Bcl-2; ratio of TR-FRET Ki values, Bcl-XL over Bcl-2)"
"CC1(C)CCC(CN2CCN(c3ccc(C(=O)NS(=O)(=O)c4ccc(OCC5COCCO5)c(Cl)c4)c(Oc4cccc5[nH]ncc45)c3)CC2)=C(c2ccc(Cl)cc2)C1 (stereo not shown) [Example 502, N-{[3-chloro-4-(1,4-dioxan-2-ylmethoxy)phenyl]sulfonyl}-4-(4-{[2-(4-chlorophenyl)-4,4-dimethylcyclohex-1-en-1-yl]methyl}piperazin-1-yl)-2-(1H-indazol-4-yloxy)benzamide]",0.025,5754.1,145,–,–,–
"CC1(C)CCC(CN2CCN(c3ccc(C(=O)NS(=O)(=O)c4ccc(NCC5COCCO5)c([N+](=O)[O-])c4)c(Oc4cccc5[nH]cnc45)c3)CC2)=C(c2ccc(Cl)cc2)C1 (stereo not shown) [Example 450, 2-(1H-benzimidazol-4-yloxy)-4-(4-{[2-(4-chlorophenyl)-4,4-dimethylcyclohex-1-en-1-yl]methyl}piperazin-1-yl)-N-({4-[(1,4-dioxan-2-ylmethyl)amino]-3-nitrophenyl}sulfonyl)benzamide]",0.299,107.3,32.1,–,–,–
"CCN(C)C(=O)N1CCOC(CNc2ccc(S(=O)(=O)NC(=O)c3ccc(N4CCN(CC5=C(c6ccc(Cl)cc6)CC(C)(C)CC5)CC4)cc3Oc3cccc4[nH]cnc34)cc2[N+](=O)[O-])C1 (stereo not shown) [Example 507, 2-{[(4-{[2-(1H-benzimidazol-4-yloxy)-4-(4-{[2-(4-chlorophenyl)-4,4-dimethylcyclohex-1-en-1-yl]methyl}piperazin-1-yl)benzoyl]sulfamoyl}-2-nitrophenyl)amino]methyl}-N-ethyl-N-methylmorpholine-4-carboxamide]",< 0.01,>3334.7,33.3,–,–,–
"CC1(C)CCC(CN2CCN(c3ccc(C(=O)NS(=O)(=O)c4cnc(OCC5(F)CCN(C(CF)CF)CC5)c(C(F)(F)F)c4)c(Oc4cccc5[nH]ncc45)c3)CC2)=C(c2ccc(Cl)cc2)C1 [Example 459, 4-(4-{[2-(4-chlorophenyl)-4,4-dimethylcyclohex-1-en-1-yl]methyl}piperazin-1-yl)-N-{[6-({4-fluoro-1-[2-fluoro-1-(fluoromethyl)ethyl]piperidin-4-yl}methoxy)-5-(trifluoromethyl)pyridin-3-yl]sulfonyl}-2-(1H-indazol-4-yloxy)benzamide]",< 0.01,541.6,5.42,–,–,–
"CC1(C)CCC(CN2CCN(c3ccc(C(=O)NS(=O)(=O)c4ccc(OCC5(F)CCN(C6COC6)CC5)c(C#N)c4)c(Oc4cccc5[nH]ncc45)c3)CC2)=C(c2ccc(Cl)cc2)C1 [Example 534, 4-(4-{[2-(4-chlorophenyl)-4,4-dimethylcyclohex-1-en-1-yl]methyl}piperazin-1-yl)-N-[(3-cyano-4-{[4-fluoro-1-(oxetan-3-yl)piperidin-4-yl]methoxy}phenyl)sulfonyl]-2-(1H-indazol-4-yloxy)benzamide]",< 0.01,>4603.9,46,–,–,–
"CC1(C)CCC(CN2CCN(c3ccc(C(=O)NS(=O)(=O)c4ccc(NCC5CCOCC5)c([N+](=O)[O-])c4)c(Oc4cccc5[nH]nnc45)c3)CC2)=C(c2ccc(Cl)cc2)C1 [Example 523, 2-(1H-benzotriazol-4-yloxy)-4-(4-{[2-(4-chlorophenyl)-4,4-dimethylcyclohex-1-en-1-yl]methyl}piperazin-1-yl)-N-({3-nitro-4-[(tetrahydro-2H-pyran-4-ylmethyl)amino]phenyl}sulfonyl)benzamide]",< 0.01,>4944.4,49.4,–,–,–
"CC1(C)CCC(CN2CCN(c3ccc(C(=O)NS(=O)(=O)c4ccc(NC[C@H]5CC[C@H](C#N)CC5)c([N+](=O)[O-])c4)c(Oc4cccc5[nH]ncc45)c3)CC2)=C(c2ccc(Cl)cc2)C1 [Example 484, 4-(4-{[2-(4-chlorophenyl)-4,4-dimethylcyclohex-1-en-1-yl]methyl}piperazin-1-yl)-N-[(4-{[(trans-4-cyanocyclohexyl)methyl]amino}-3-nitrophenyl)sulfonyl]-2-(1H-indazol-4-yloxy)benzamide]",< 0.01,>3433.9,34.3,–,–,–
"CN(C)CCCNc1ccc(S(=O)(=O)NC(=O)c2ccc(N3CCN(Cc4ccccc4-c4ccc(Cl)cc4)CC3)cc2Oc2ccccc2)cc1C#N [Example 90, 4-{4-[(4′-chloro-1,1′-biphenyl-2-yl)methyl]piperazin-1-yl}-N-[(3-cyano-4-{[3-(dimethylamino)propyl]amino}phenyl)sulfonyl]-2-phenoxybenzamide]",–,–,–,2.13,284,–
"O=C(NS(=O)(=O)c1ccc(NCC2CCOCC2)c(S(=O)(=O)C(F)(F)F)c1)c1ccc(N2CCN(Cc3ccccc3-c3ccc(Cl)cc3)CC2)cc1Oc1ccc2[nH]ccc2c1 [Example 62, 4-{4-[(4′-chloro-1,1′-biphenyl-2-yl)methyl]piperazin-1-yl}-2-(1H-indol-5-yloxy)-N-({4-[(tetrahydro-2H-pyran-4-ylmethyl)amino]-3-[(trifluoromethyl)sulfonyl]phenyl}sulfonyl)benzamide]",–,–,–,3.52,571,–
"CC1(C)CCC(CN2CCN(c3ccc(C(=O)NS(=O)(=O)c4cnc(O[C@@H]5CCN(C(CF)CF)C5)c(Cl)c4)c(Oc4cccc5[nH]ncc45)c3)CC2)=C(c2ccc(Cl)cc2)C1 [Example 434, N-{[5-chloro-6-({(3R)-1-[2-fluoro-1-(fluoromethyl)ethyl]pyrrolidin-3-yl}oxy)pyridin-3-yl]sulfonyl}-4-(4-{[2-(4-chlorophenyl)-4,4-dimethylcyclohex-1-en-1-yl]methyl}piperazin-1-yl)-2-(1H-indazol-4-yloxy)benzamide]",–,–,–,0.052,75.5,1459.4
"CC1(C)CCC(CN2CCN(c3ccc(C(=O)NS(=O)(=O)c4cnc(OC[C@@H]5CN(C6CC6)CCO5)c(Cl)c4)c(Oc4cccc5[nH]ncc45)c3)CC2)=C(c2ccc(Cl)cc2)C1 [Example 504, N-[(5-chloro-6-{[(2S)-4-cyclopropylmorpholin-2-yl]methoxy}pyridin-3-yl)sulfonyl]-4-(4-{[2-(4-chlorophenyl)-4,4-dimethylcyclohex-1-en-1-yl]methyl}piperazin-1-yl)-2-(1H-indazol-4-yloxy)benzamide]",< 0.01,>549.9,5.5,–,–,–
"O=C(NS(=O)(=O)c1ccc(NCC2CCOCC2)c([N+](=O)[O-])c1)c1ccc(N2CCN(Cc3cc(OCCN4CCOCC4)ccc3-c3ccc(Cl)cc3)CC2)cc1Oc1ccc2[nH]ccc2c1 [Example 127, 4-(4-{[4′-chloro-4-(2-morpholin-4-ylethoxy)-1,1′-biphenyl-2-yl]methyl}piperazin-1-yl)-2-(1H-indol-5-yloxy)-N-({3-nitro-4-[(tetrahydro-2H-pyran-4-ylmethyl)amino]phenyl}sulfonyl)benzamide]",–,–,–,0.459,> 660,–
"O=C(NS(=O)(=O)c1ccc(NCC2CCOCC2)c(S(=O)(=O)C(F)(F)F)c1)c1ccc(N2CCN(Cc3ccccc3-c3ccc(Cl)cc3)CC2)cc1Oc1ccccc1 [Example 163, 4-{4-[(4′-chloro-1,1′-biphenyl-2-yl)methyl]piperazin-1-yl}-2-phenoxy-N-({4-[(tetrahydro-2H-pyran-4-ylmethyl)amino]-3-[(trifluoromethyl)sulfonyl]phenyl}sulfonyl)benzamide]",–,–,–,5.62,> 660,–
"CC1(C)CCC(CN2CCN(c3ccc(C(=O)NS(=O)(=O)c4cnc(OC[C@H]5CC[C@H](C#N)CC5)c(Cl)c4)c(Oc4cccc5[nH]ncc45)c3)CC2)=C(c2ccc(Cl)cc2)C1 [Example 492, N-({5-chloro-6-[(trans-4-cyanocyclohexyl)methoxy]pyridin-3-yl}sulfonyl)-4-(4-{[2-(4-chlorophenyl)-4,4-dimethylcyclohex-1-en-1-yl]methyl}piperazin-1-yl)-2-(1H-indazol-4-yloxy)benzamide]",< 0.01,>4509.6,45.1,–,–,–
"CC1(C)CCC(CN2CCN(c3ccc(C(=O)NS(=O)(=O)c4ccc(NC5CCN(C6CC6)CC5)c([N+](=O)[O-])c4)c(Oc4cccc5[nH]ncc45)c3)CC2)=C(c2ccc(Cl)cc2)C1 [Example 436, 4-(4-{[2-(4-chlorophenyl)-4,4-dimethylcyclohex-1-en-1-yl]methyl}piperazin-1-yl)-N-({4-[(1-cyclopropylpiperidin-4-yl)amino]-3-nitrophenyl}sulfonyl)-2-(1H-indazol-4-yloxy)benzamide]",0.011,–,6.5,–,–,–
"O=C(NS(=O)(=O)c1cnc(OCC2(F)CCOCC2)c(Cl)c1)c1ccc(N2CCN(CC3=C(c4ccc(Cl)cc4)CCC(F)(F)C3)CC2)cc1Oc1cccc2[nH]ncc12 [Example 521, N-({5-chloro-6-[(4-fluorotetrahydro-2H-pyran-4-yl)methoxy]pyridin-3-yl}sulfonyl)-4-(4-{[2-(4-chlorophenyl)-5,5-difluorocyclohex-1-en-1-yl]methyl}piperazin-1-yl)-2-(1H-indazol-4-yloxy)benzamide]",< 0.01,>466.9,4.67,–,–,–
"CC1(C)CCC(CN2CCN(c3ccc(C(=O)NS(=O)(=O)c4ccc(NC[C@H]5CN(C6CC6)CCO5)c([N+](=O)[O-])c4)c(Oc4cccc5[nH]ncc45)c3)CC2)=C(c2ccc(Cl)cc2)C1 [Example 529, 4-(4-{[2-(4-chlorophenyl)-4,4-dimethylcyclohex-1-en-1-yl]methyl}piperazin-1-yl)-N-{[4-({[(2S)-4-cyclopropylmorpholin-2-yl]methyl}amino)-3-nitrophenyl]sulfonyl}-2-(1H-indazol-4-yloxy)benzamide]",< 0.01,>828.4,8.28,–,–,–

# — patent US9073855B2, “BCL-2 selective apoptosis-inducing agents for the treatment of cancer and immune diseases” (AbbVie Inc., priority 2008, dated 2015)
